This note sets out measurements from patent publication US20090061452A1, “Polymorphisms in the human genes for OCT 1 and their use in diagnostic and therapeutic applications” (Epidauros Biotechnologie AG, priority 2002, published 2009).

One assay has as its target T1, OCT1 mutant Arg61Cys (Homo sapiens, UniProt O15245, R61C).
T1 construct: expressed in transfected cells; host or cells: Xenopus laevis oocytes injected with cRNA transcribed from the pOG1 vector
T1 sequence (O15245 1-554 R61C): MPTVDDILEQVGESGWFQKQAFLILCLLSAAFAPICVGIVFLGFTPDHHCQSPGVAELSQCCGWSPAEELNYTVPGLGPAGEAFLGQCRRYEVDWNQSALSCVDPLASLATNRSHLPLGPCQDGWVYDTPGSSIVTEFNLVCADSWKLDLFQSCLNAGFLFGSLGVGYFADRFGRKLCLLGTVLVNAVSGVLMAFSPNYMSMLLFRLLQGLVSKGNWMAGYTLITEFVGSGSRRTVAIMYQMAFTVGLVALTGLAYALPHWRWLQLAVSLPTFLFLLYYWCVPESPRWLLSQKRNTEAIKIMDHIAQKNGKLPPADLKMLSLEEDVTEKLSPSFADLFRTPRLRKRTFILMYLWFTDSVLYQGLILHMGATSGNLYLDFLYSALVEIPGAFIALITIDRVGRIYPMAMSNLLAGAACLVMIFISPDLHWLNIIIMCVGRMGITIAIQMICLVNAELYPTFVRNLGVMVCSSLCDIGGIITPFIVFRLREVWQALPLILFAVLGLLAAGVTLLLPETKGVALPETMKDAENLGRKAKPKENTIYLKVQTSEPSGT
Briefly: Cyanine863-inhibitable uptake in Xenopus oocytes expressing OCT1 mutant Arg61Cys. The class given is cell-based. As to conditions: 0.1 μM [3H]MPP, 30 min.

For another assay, the target named is T2, OCT1 mutant Phe160Leu (Homo sapiens, UniProt O15245).
T2 construct: expressed in transfected cells; host or cells: Xenopus laevis oocytes injected with cRNA transcribed from the pOG1 vector
T2 sequence (O15245 1-554): T1 sequence (O15245 1-554 R61C) with C61R
Briefly: Cyanine863-inhibitable uptake in Xenopus oocytes expressing OCT1 mutant Phe160Leu. The assay is classed as cell-based.

A further assay deals with T3, OCT1 mutant Met420del (Homo sapiens, UniProt O15245, DEL420-420).
T3 construct: expressed in transfected cells; host or cells: Xenopus laevis oocytes injected with cRNA transcribed from the pOG1 vector
T3 sequence (O15245 with tags, fused parts or gaps DEL420-420): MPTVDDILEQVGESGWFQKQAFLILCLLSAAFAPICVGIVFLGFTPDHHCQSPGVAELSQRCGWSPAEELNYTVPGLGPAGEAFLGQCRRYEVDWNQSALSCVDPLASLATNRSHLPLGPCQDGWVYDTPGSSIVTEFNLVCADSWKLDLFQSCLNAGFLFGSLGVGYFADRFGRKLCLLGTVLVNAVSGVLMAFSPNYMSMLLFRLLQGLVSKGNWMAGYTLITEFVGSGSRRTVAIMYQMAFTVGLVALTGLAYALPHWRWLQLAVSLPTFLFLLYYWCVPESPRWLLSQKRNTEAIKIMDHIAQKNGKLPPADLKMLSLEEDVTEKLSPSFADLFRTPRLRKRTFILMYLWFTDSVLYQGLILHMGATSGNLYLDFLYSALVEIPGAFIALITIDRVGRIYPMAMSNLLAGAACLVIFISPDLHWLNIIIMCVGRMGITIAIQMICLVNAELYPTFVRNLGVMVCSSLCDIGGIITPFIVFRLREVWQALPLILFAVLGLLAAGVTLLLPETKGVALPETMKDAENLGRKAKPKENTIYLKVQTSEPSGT
Description: Cyanine863-inhibitable uptake in Xenopus oocytes expressing OCT1 mutant Met420del. The assay is classed as cell-based.

In another assay the target is T4, OCT1 mutant Cys88Arg (Homo sapiens, UniProt O15245, C88R).
T4 sequence (O15245 1-554 C88R): T1 sequence (O15245 1-554 R61C) with C61R, C88R
Briefly: Cyanine863-inhibitable uptake in Xenopus oocytes expressing OCT1 mutant Cys88Arg.

The target of another assay is T5, OCT1 mutant Gly401Ser (Homo sapiens, UniProt O15245, G401S).
T5 sequence (O15245 1-554 G401S): T1 sequence (O15245 1-554 R61C) with C61R, G401S
Description: Cyanine863-inhibitable uptake in Xenopus oocytes expressing OCT1 mutant Gly401Ser.

Where [1] appears, read: Hill equation fit, 9 MPP concentrations.

Positions count from the first letter of the chain named. Entries after “also recorded” stand apart in the source; their conditions may differ.

Description for OCT1 mutant Cys88Arg: (§1) OCT1 wt and OCT1 mutants were expressed in Xenopus oocytes and analyzed side-by-side. Cyanine863-inhibitable uptake of radioactively labeled organic cations was measured over 30 min. a) Uptake of 0.1 μM [^3H]MPP by different mutants in comparison to OCT1. […] In different batches of oocytes, the cyanine-863-inhibited uptake of 0.1 μM [^3H]MPP expressed by OCT1 wt varied between 0.9 and 1.8 μmol×oocyte^−1×30 min^−1. […] MPP uptake was measured at 9 different MPP concentrations and K0.5 values were determined by fitting the Hill equation to the data. […] Mean values±SD of three experiments are presented. *P<0.05, **P<0.01, ***P<0.001.
(§2) After defolliculation, the oocytes were injected with 10 ng/oocycte of the respective cRNAs. […] Oocytes were incubated for 30 min with the indicated substrate concentrations in the absence or presence of 100 μM of the inhibitor cyanine863. The mutants were compared with the OCT1 wt in side-by-side experiments using oocytes from the same batch (Arndt, Am J. Physiol. Renal Physiol. 281 (2001), F454-468). Each data point corresponded to 8-10 oocytes. K0.5 values were estimated by fitting the Hill equation to the data. Mean values±SD are presented. Significance of differences was tested by unpaired Student t-tests.
Description for OCT1 mutant Gly401Ser: as §1, §2

For `C[n+]1ccc(-c2ccccc2)cc1` [MPP, 1-methyl-4-phenylpyridinium], the “uptake reduced by (compared to OCT1 wt)” value is 70% at OCT1 mutant Arg61Cys; “more than 98%” on OCT1 mutant Cys88Arg (0.1 μM [3H]MPP, 30 min); “more than 98%” on OCT1 mutant Gly401Ser (0.1 μM [3H]MPP, 30 min). The “uptake compared to OCT1 wt” value on OCT1 mutant Phe160Leu (0.1 μM [3H]MPP, 30 min) was “not significantly different from OCT1 wt”; on OCT1 mutant Met420del (0.1 μM [3H]MPP, 30 min), “not significantly different from OCT1 wt”. The “half maximal concentration for substrate activation (K0.5) compared to wild-type” value is “similar; also recorded: identical to wild-type” at OCT1 mutant Phe160Leu (setting [1]) and “identical to wild-type” on OCT1 mutant Met420del (setting [1]). The “maximal expressed transport rates compared to wild-type” value at OCT1 mutant Phe160Leu (data not shown) and at OCT1 mutant Met420del (data not shown) was “identical to wild-type” each time. Also, the “reduced Vmax value compared to OCT1 wt” value on OCT1 mutant Phe160Leu (n=3) was found to be 32±16%.
In the case of `NCCc1c[nH]c2ccc(O)cc12` [serotonin], the “uptake compared to wt, relative to reduction of MPP uptake” value on OCT1 mutant Cys88Arg (1 μM [3H]serotonin) and at OCT1 mutant Gly401Ser (1 μM [3H]serotonin) was “significantly less reduced” in each case.
